Data from patent US20220356186A1, “PERK INHIBITING PYRROLOPYRIMIDINE COMPOUNDS” (HiberCell, Inc., priority 2019, published 2022).
Where two headings read alike, the source gives them in different places. Blank lines part the entries; values can stand above or below the compound they belong to.

Key:
[1] = biological target: T1, EIF2AK3 (PERK) catalytic domain (amino acids 536-1116) (Homo sapiens, UniProt Q9NZJ5); test: PERK in vitro activity assay (isolated), TR-FRET kinase assay; format: biochemical; conditions: isolated PERK enzyme, 1.5 μM ATP; read-out: Biochemical IC50
T1 construct: EIF2AK3 (PERK) catalytic domain (amino acids 536-1116)
T1 sequence (Q9NZJ5 536-1116): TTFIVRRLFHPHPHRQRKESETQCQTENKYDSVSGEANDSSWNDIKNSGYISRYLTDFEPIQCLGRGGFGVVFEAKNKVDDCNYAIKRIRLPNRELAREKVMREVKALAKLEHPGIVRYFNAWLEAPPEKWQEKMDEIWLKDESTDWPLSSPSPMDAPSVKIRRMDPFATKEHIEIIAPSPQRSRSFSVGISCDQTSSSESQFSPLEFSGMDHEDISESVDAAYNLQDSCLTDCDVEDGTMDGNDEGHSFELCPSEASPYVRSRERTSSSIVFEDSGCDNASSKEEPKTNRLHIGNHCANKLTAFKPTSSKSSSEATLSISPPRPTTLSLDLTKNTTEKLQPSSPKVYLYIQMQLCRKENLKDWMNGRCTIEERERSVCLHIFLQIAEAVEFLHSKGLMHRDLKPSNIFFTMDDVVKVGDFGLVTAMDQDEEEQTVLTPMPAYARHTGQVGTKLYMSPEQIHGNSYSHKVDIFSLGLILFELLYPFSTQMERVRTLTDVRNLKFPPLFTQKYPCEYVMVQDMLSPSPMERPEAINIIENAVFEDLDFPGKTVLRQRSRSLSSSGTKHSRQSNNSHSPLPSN
Procedure, shortened: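 Human PERK catalytic domain (aa 536-1116) phosphorylating 100-200 nM GFP-eIF2a in 50 mM HEPES pH 7.5, 10 mM MgCl2, 1 mM EGTA, 0.01% Brij-35; enzyme-started, 45 min at room temperature. Stopped with 10 mM EDTA, 2 nM Tb-anti-phospho-eIF2a added for 90 min; IC50 from TR-FRET ratios by 4-parameter logistic fit.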

[2] = test system: GFP-eIF2α in HEK293 cells; test: PERK cellular assay, TR-FRET in HEK293-EGFP-eIF2a cells after tunicamycin-induced ER stress; format: cell-based; conditions: Homo sapiens, HEK293-EGFP-eIF2a cells, tunicamycin 2 hours, read-out: Cellular eIF2α IC50
Procedure, shortened: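 HEK293 cells stably expressing GFP-eIF2α, plated 5000 cells/well overnight, pretreated with inhibitors 30 min at 37 °C, then ER stress induced with tunicamycin […] for 2 h.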

[3] = test system: select kinases; test: KINOMEscan in vitro competition binding assay for select kinases

Structure (SMILES): Cc1cc(NC(=O)Oc2ccccc2)ccc1-c1cn(C)c2ncnc(N)c12 [Example 169, phenyl (4-(4-amino-7-methyl-7H-pyrrolo[2,3-d]pyrimidin-5-yl)-3-methylphenyl)carbamate]
IC50 [1]: 3000 to 4000 nM | IC50 [2]: > 5000 nM

Structure (SMILES): Cc1cc(NC(=O)N(C)c2ccccc2)ccc1-c1cn(C)c2ncnc(N)c12 [Example 171, 3-(4-(4-amino-7-methyl-7H-pyrrolo[2,3-d]pyrimidin-5-yl)-3-methylphenyl)-1-methyl-1-phenylurea]
IC50 [1]: 101 to 250 nM | IC50 ([2]; HEK293, 2 h): 1000 to 2000 nM

Structure (SMILES): Cc1cccc(CC(=O)N2CCc3c2ccc(-c2cn(C)c4ncnc(N)c24)c3F)n1 [GSK2656157, reference compound]
KINOMEscan competition binding, inhibition of AURKB ([3]; kinase AURKB): Inhibition (“Inhibition” refers to greater than 50% inhibition) | KINOMEscan competition binding, inhibition of AXL ([3]; kinase AXL): Inhibition (“Inhibition” refers to greater than 50% inhibition) | KINOMEscan competition binding, inhibition of BLK ([3]; kinase BLK): Inhibition (“Inhibition” refers to greater than 50% inhibition) | KINOMEscan competition binding, inhibition of CAMK4 ([3]; kinase CAMK4): No inhibition | KINOMEscan competition binding, inhibition of CDK8 ([3]; kinase CDK8): Inhibition (“Inhibition” refers to greater than 50% inhibition) | KINOMEscan competition binding, inhibition of CDK11 ([3]; kinase CDK11): Inhibition (“Inhibition” refers to greater than 50% inhibition) | KINOMEscan competition binding, inhibition of CSF1R ([3]; kinase CSF1R): Inhibition (“Inhibition” refers to greater than 50% inhibition) | KINOMEscan competition binding, inhibition of EIF2AK1 ([3]; kinase EIF2AK1): Inhibition (“Inhibition” refers to greater than 50% inhibition) | KINOMEscan competition binding, inhibition of EPHB6 ([3]; kinase EPHB6): Inhibition (“Inhibition” refers to greater than 50% inhibition) | KINOMEscan competition binding, inhibition of FLT3 ([3]; kinase FLT3): No Inhibition (“No Inhibition” refers to less than 50% inhibition) | KINOMEscan competition binding, inhibition of HIPK4 ([3]; kinase HIPK4): No Inhibition (“No Inhibition” refers to less than 50% inhibition) | KINOMEscan competition binding, inhibition of LOK ([3]; kinase LOK): Inhibition (“Inhibition” refers to greater than 50% inhibition) | KINOMEscan competition binding, inhibition of MAP3K2 ([3]; kinase MAP3K2): Inhibition (“Inhibition” refers to greater than 50% inhibition) | KINOMEscan competition binding, inhibition of MAP3K3 ([3]; kinase MAP3K3): No Inhibition (“No Inhibition” refers to less than 50% inhibition) | KINOMEscan competition binding, inhibition of MAP3K15 ([3]; kinase MAP3K15): No Inhibition (“No Inhibition” refers to less than 50% inhibition) | KINOMEscan competition binding, inhibition of MEK5 ([3]; kinase MEK5): Inhibition (“Inhibition” refers to greater than 50% inhibition) | KINOMEscan competition binding, inhibition of MKNK2 ([3]; kinase MKNK2): No Inhibition (“No Inhibition” refers to less than 50% inhibition) | KINOMEscan competition binding, inhibition of NEK1 ([3]; kinase NEK1): No Inhibition (“No Inhibition” refers to less than 50% inhibition) | KINOMEscan competition binding, inhibition of NEK5 ([3]; kinase NEK5): No Inhibition (“No Inhibition” refers to less than 50% inhibition) | KINOMEscan competition binding, inhibition of PIK3C2B ([3]; kinase PIK3C2B): No Inhibition (“No Inhibition” refers to less than 50% inhibition) | KINOMEscan competition binding, inhibition of RIOK2 ([3]; kinase RIOK2): Inhibition (“Inhibition” refers to greater than 50% inhibition) | KINOMEscan competition binding, inhibition of RIPK1 ([3]; kinase RIPK1): Inhibition (“Inhibition” refers to greater than 50% inhibition) | KINOMEscan competition binding, inhibition of RIPK2 ([3]; kinase RIPK2): No Inhibition (“No Inhibition” refers to less than 50% inhibition) | KINOMEscan competition binding, inhibition of RIPK5 ([3]; kinase RIPK5): No Inhibition (“No Inhibition” refers to less than 50% inhibition) | KINOMEscan competition binding, inhibition of TESK1 ([3]; kinase TESK1): No Inhibition (“No Inhibition” refers to less than 50% inhibition) | KINOMEscan competition binding, inhibition of TIE2 ([3]; kinase TIE2): No Inhibition (“No Inhibition” refers to less than 50% inhibition) | KINOMEscan competition binding, inhibition of TRKA ([3]; kinase TRKA): Inhibition (“Inhibition” refers to greater than 50% inhibition) | KINOMEscan competition binding, inhibition of TRKB ([3]; kinase TRKB): No Inhibition (“No Inhibition” refers to less than 50% inhibition) | KINOMEscan competition binding, inhibition of TRKC ([3]; kinase TRKC): Inhibition (“Inhibition” refers to greater than 50% inhibition) | KINOMEscan competition binding, inhibition of VRK2 ([3]; kinase VRK2): Inhibition (“Inhibition” refers to greater than 50% inhibition) | KINOMEscan competition binding, inhibition of YANK1 ([3]; kinase YANK1): No Inhibition (“No Inhibition” refers to less than 50% inhibition) | KINOMEscan competition binding, inhibition of YANK2 ([3]; kinase YANK2): No Inhibition (“No Inhibition” refers to less than 50% inhibition) | KINOMEscan competition binding, inhibition of YSK4 ([3]; kinase YSK4): Inhibition (“Inhibition” refers to greater than 50% inhibition)

Continued, in another order:

IC50 [1]: 101 to 250 nM
Structure (SMILES): Cc1cc(NC(=O)CCc2ccccc2)ccc1-c1cn(C)c2ncnc(N)c12 [Example 168, N-(4-(4-amino-7-methyl-7H-pyrrolo[2,3-d]pyrimidin-5-yl)-3-methylphenyl)-3-phenylpropanamide]
IC50 ([2]; HEK293, 2 h): 1000 to 2000 nM

IC50 [1]: 1 to 25 nM
Structure (SMILES): Cc1cc(NC(=O)Nc2ccccc2)ccc1-c1cn(C)c2ncnc(N)c12 [Example 170, 1-(4-(4-amino-7-methyl-7H-pyrrolo[2,3-d]pyrimidin-5-yl)-3-methylphenyl)-3-phenylurea]
IC50 ([2]; HEK293, 2 h): 101 to 250 nM
